Converted amounts (≈) assume the structure as drawn.
How the values were obtained:
[1] = test system: Leishmania Major (promastigotes); assay: Cell growth of Leishmania parasites by MTT assay; assay type: cell-based; conditions: Leishmania major, read-out: IC50, cytotoxic to Leishmania Major (promastigotes)
Protocol: Method: Leishmania parasites (Leishmania major: MRHO/SU/59/P/LV39) were grown in culture medium in a T75 flask at room temperature. Promastigotes of Leishmania major (approximately 40 million per ml) were used in the experiment. 1.2 ml cell culture was transferred to a well of the 24-wells plate. Saponin Y10 (0.2 ml in medium) with different concentrations (final 6.25-200 ug/ml) was added to culture and cells were grown for 1-5 days at room temperature. At the end of drug-treatment, 150 ul of MTT (5 mg/ml in PBS) was added to each well and incubated for 4 hours. Formazan formed in cells was dissolved with DMSO and the OD at 490 nm was determined by an ELISA reader.

[2] = test system: Fibronectin; assay: Fibronectin secretion from ES2 cells; assay type: cell-based, human
Protocol: (§1) Reduction of Fibronectin secretion from ES2 cells after xanifolia-Y treatment. • (Results of F1, F3, F4, F5, F7, F8, F11, F12A, F15, F16, F17) Data in PCT/US2008/002086, 1188-ALA-PCT, filed Feb. 15, 2008 are incorporated herein by reference • (F11) For lung carcinoma cells (H460), at concentration of 20 ug/ml, there are inhibitions of Fibronectin secretion ranged from 20-60%. • (F12A) For bladder carcinoma cells (HTB-9), Xanifolia-Y (10 ug/ml) inhibits 50% of Fibronectin secretion. • (F15) In liver HepG2 cells. 10 ug/ml of xanifolia-Y inhibits 42% secretion of Fibronectin. • (F16) Incubation of brain glioblastoma T98G cells with 10 ug/ml of xanifolia-Y inhibits 27% Fibronectin secretion and with 20 ug/ml Y inhibits 74% Fibronectin secretion. • (F17) For skin SK-MeI-5 cells, the inhibition is 40-57% with 20 ug/ml of Xanifolia-Y.

[3] = test system: Fibronectin; assay: Fibronectin secretion, bladder carcinoma cells (HTB-9); assay type: cell-based, human; conditions: Homo sapiens; Bladder HTB-9; 10 ug/ml (table: label suffix -10)
Protocol: as §1

[4] = test system: Fibronectin; assay: Fibronectin secretion, brain glioblastoma T98G cells; assay type: cell-based, human; conditions: Homo sapiens, T98G
Protocol: as §1

[5] = test system: regulator of G-protein signalling 4 (RGS4); assay: Microarray gene expression in ES2 cells: regulator of G-protein; assay type: cell-based, human
Source text: (§2) The composition comprises bioactive compounds from natural plants or synthesis. The majority of the plants are from the Sapindaceae family, which has 140-150 genera with 1400-2000 species. The program is based on our purification methods and biological assays including the MTT assay See International Application No. PCT/US05/31900, filed Sep. 7, 2005, U.S. Ser. No. 11/289,142, filed Nov. 28, 2005, and U.S. Ser. No. 11/131,551, filed May 17, 2005, and PCT/US2008/002086, 1188-ALA-PCT, filed Feb. 15, 2008, the contents of which are incorporated herein by reference. The details of Analysis of gene expression of ES2 cells after Y-treatment by Microarray, Data Analysis Methods and Western blot in PCT/US2008/002086, 1188-ALA-PCT, filed Feb. 15, 2008, the contents of which are incorporated herein by reference

[6] = test system: insulin-like growth factor binding protein 4 (IGFBP4); assay: Microarray gene expression in ES2 cells: IGFBP4; assay type: cell-based, human; conditions: probe set 201508_at
Source text: as §2

[7] = test system: insulin-like growth factor binding protein 7 (IGFBP7); assay: Microarray gene expression in ES2 cells: IGFBP7; assay type: cell-based, human; conditions: probe set 201163_s_at
Source text: as §2

[8] = test system: insulin-like growth factor binding protein 6 (IGFBP6); assay: Microarray gene expression in ES2 cells: IGFBP6; assay type: cell-based, human; conditions: probe set 203851_at
Source text: as §2

[9] = test system: RAB3B, member RAS oncogene family; assay: Microarray gene expression in ES2 cells: RAB3B; assay type: cell-based, human
Source text: as §2

[10] = test system: potassium channel, subfamily U, member 1 (KCNU1); assay: Microarray gene expression in ES2 cells: potassium channel; assay type: cell-based, human; conditions: ID 237273_at
Source text: as §2

[11] = test system: angiopoietin-like 1; assay: Microarray gene expression in ES2 cells: angiopoietin-like 1; assay type: cell-based, human; conditions: micro array
Source text: as §2
Angiogenesis is a process involving the growth of new blood vessels. It is a normal process in growth and development. However, this is also a fundamental step in the transition of tumors from a dormant state to a malignant state. The angiopoietins are protein growth factors that modulate angiogenesis. […]

[12] = test system: ES2 cells; assay: Microarray experiments: lists of modulated genes; assay type: cell-based, human
Source text: as §2

[13] = test system: leptin; assay: Expression of leptin; assay type: cell-based
[14] = test system: ANGPT2 (angiopoietin 2); assay: Gene expression by Real-time PCR: ANGPT2; assay type: cell-based; conditions: DMSO control = 100
Source text: (§3) Determination of gene expression by Real-time PCR method (Brilliant QPCR, Agilent Technologies): The real-time polymerase chain reactions further confirm the results obtained from micro array analysis. The Real-time PCR results (shown below) confirmed that Compound Y3 and YM increase the expression of the genes: ANGPT2, DDIT3, LIF and NFKB1Z

[15] = test system: NFKB1Z (nuclear factor of kappa light polypeptide gene enhancer in B-cells inhibitor, zeta); assay: Gene expression by Real-time PCR: NFKB1Z; assay type: cell-based; conditions: DMSO control = 100
Source text: as §3

[16] = test system: LAMA4 (laminin alpha 4); assay: Gene expression by Real-time PCR: LAMA4; assay type: cell-based; conditions: control = 100
Source text: as §3

Structure (SMILES): C/C=C(/C)C(=O)O[C@H]1[C@H](OC(=O)/C(C)=C\C)[C@@]2(CO)C(CC1(C)C)C1=CCC3[C@@]4(C)CC[C@H](O[C@@H]5OC(C(=O)O)[C@@H](O)[C@@H](O[C@@H]6O[C@@H](CO)[C@@H](O)C6O)C5O[C@@H]5OC(CO)[C@H](O)[C@@H](O)C5O)C(C)(C)C4CC[C@@]3(C)[C@]1(C)[C@@H](O)[C@H]2O (stereo partly drawn) [Y, 3-O-[β-D-galactopyranosyl(1→2)]-α-L-arabinofuranosy (1→3)-β-D-glucuronopyranosyl-21,22-O-diangeloyl-3β, 15α, 16α, 21β, 22α, 28-hexahydroxyolean-12-ene]
- IC50 [1]: 15 µg/mL (≈ 13.1 µM)
- Fibronectin secretion from ES2 cells [2]: Reduction
- inhibition at 10 µg/mL [3]: 50%
- inhibition at 10 µg/mL ([4]; read-out: % inhibition of Fibronectin secretion): 27%
- inhibition at 20 µg/mL ([4]; read-out: inhibition of Fibronectin secretion): 74%
- RGS4 expression, treated/D (DMSO control) ([5]; probe set 204337_at): −3.4
- RGS4 expression, treated/D (DMSO control) ([5]; probe set 204338_s_at): −2.5
- RGS4 expression, treated/D (DMSO control) ([5]; probe set 204339_s_at): −3.5
- IGFBP4 expression, treated/D (DMSO control) [6]: −1.7
- IGFBP7 expression, treated/D (DMSO control) [7]: −1.4
- IGFBP6 expression, treated/D (DMSO control) [8]: −1.3
- RAB3B expression, treated/D (DMSO control) ([9]; ID 205924_at): −1.7
- RAB3B expression, treated/D (DMSO control) ([9]; ID 205925_s_at): −1.2
- RAB3B expression, treated/D (DMSO control) ([9]; ID 227123_at): −1.6
- RAB3B expression, treated/D (DMSO control) ([9]; ID 242629_at): −3.5
- KCNU1 expression, treated/D (DMSO control) [10]: −4.0
- gene expression of angiopoietin-like 1 [11]: inhibit
- genes expression of the adhesion-related genes listed in b182 (FN1, ITGAV, LAMA4 ...) [12]: inhibited
- gene expression of the genes listed in b176 ([12]; Microarray): modulates
- gene expression of the genes listed in b178 ([12]; Microarray): inhibiting
- gene expression of the genes listed in b180 ([12]; Microarray): stimulates
- expression of leptin [13]: inhibit
- ANGPT2 expression, % of control [14]: 300 % of control
- NFKB1Z expression, % of control [15]: 142.9 % of control
- LAMA4 expression, % of control [16]: 53.6 % of control

From patent US8586719B2, “Triterpenes for modulating gene expression and cell membrane, and as antiprotozoal agents” (Pacific Arrow Limited, priority 2005, dated 2013)
